The source of these data is patent publication US10858352B2, “Pharmaceutical compounds” (Heptares Therapeutics Limited, priority 2018, dated 2020).

Holding throughout (type): cell-based
Assay [1] deals with T1, human muscarinic M1 receptor (Homo sapiens, UniProt P11229).
T1 sequence (P11229 1-460): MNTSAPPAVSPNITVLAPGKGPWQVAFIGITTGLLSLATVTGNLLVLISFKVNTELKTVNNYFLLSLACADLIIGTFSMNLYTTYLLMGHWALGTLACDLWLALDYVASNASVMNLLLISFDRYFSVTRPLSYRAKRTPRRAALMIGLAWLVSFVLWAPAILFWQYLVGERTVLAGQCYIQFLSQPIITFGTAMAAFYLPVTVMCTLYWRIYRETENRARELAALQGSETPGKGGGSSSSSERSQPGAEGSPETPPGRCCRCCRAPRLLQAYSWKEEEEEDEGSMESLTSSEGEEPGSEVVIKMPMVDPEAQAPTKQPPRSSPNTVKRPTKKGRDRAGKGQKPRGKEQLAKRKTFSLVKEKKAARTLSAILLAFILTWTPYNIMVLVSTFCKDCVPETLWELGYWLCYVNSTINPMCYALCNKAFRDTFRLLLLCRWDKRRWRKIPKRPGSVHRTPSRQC
In words: Alphascreen Surefire phospho-ERK1/2 functional assay, M1. To be noted: for EC50 / pEC50 M1: agonist 5 min, 37° C.; for Emax: CHO. As for the experimental part:
(§1) ERK1/2 phosphorylation is a downstream consequence of both Gq/11 and Gi/o protein coupled receptor activation, making it highly suitable for the assessment of M1, M3 (Gq/11 coupled) and M2, M4 receptors (Gi/o coupled), rather than using different assay formats for different receptor subtypes. CHO cells stably expressing the human muscarinic M1, M2, M3 or M4 receptor were plated (25K/well) onto 96-well tissue culture plates in MEM-alpha+10% dialysed FBS. Once adhered, cells were serum-starved overnight. Agonist stimulation was performed by the addition of 5 μL agonist to the cells for 5 min (37° C.). Media was removed and 50 μL of lysis buffer added. After 15 min, a 4 μL sample was transferred to 384-well plate and 7 μL of detection mixture added. […]
(In general: Alpha assays give light when donor and acceptor beads are brought close together.)

In assay [2] the target is T2, human muscarinic M2 receptor (Homo sapiens, UniProt P08172).
T2 sequence (P08172 1-466): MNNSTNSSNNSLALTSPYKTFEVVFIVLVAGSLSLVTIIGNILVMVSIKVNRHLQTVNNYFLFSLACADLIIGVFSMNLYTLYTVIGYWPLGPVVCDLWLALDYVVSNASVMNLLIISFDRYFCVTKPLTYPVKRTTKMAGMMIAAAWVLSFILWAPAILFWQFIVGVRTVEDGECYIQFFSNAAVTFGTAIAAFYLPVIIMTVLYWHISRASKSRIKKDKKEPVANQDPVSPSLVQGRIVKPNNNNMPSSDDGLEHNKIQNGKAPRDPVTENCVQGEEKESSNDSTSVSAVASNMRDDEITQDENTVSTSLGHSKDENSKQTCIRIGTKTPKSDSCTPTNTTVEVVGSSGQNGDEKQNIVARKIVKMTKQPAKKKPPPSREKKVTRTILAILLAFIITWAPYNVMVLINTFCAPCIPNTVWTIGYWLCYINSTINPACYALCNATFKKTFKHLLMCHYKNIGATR
In words: Alphascreen Surefire phospho-ERK1/2 functional assay, M2. To be noted: for Emax: CHO. On the procedure: as §1

Assay [3] has as its target T3, human muscarinic M3 receptor (Homo sapiens, UniProt P20309).
T3 construct: expressed in transfected cells
Description: Alphascreen Surefire phospho-ERK1/2 functional assay, M3. Conditions: for Emax: CHO. On the procedure:
as §1

Assay [4] concerns the target T4, human muscarinic M4 receptor (Homo sapiens, UniProt P08173).
T4 construct: expressed in transfected cells
T4 sequence (P08173 1-479): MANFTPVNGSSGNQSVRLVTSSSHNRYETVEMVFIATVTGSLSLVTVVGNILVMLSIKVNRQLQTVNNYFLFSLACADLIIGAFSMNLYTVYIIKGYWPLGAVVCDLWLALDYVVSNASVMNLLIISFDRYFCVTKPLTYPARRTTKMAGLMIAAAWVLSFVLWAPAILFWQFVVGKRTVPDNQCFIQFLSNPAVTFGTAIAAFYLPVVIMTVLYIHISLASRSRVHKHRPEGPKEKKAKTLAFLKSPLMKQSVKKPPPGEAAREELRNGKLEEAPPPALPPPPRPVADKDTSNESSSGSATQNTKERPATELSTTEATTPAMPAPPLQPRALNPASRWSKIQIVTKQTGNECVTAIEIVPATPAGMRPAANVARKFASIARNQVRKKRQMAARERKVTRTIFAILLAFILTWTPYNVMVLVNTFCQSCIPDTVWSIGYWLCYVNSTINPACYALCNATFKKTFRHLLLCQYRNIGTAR
Description: Alphascreen Surefire phospho-ERK1/2 functional assay, M4. Conditions: for EC50 / pEC50 M4: agonist 5 min, 37° C.; for Emax: CHO, read-out: % Emax cf. ACh (M4), CHO cells stably expressing human M4; for Emax / % Emax cf. ACh (M4): Emax relative to ACh. As for the experimental part:
as §1

[5] abbreviates: CHO cells stably expressing human M1, read-out: pEC50 M1 (converted).
The mark [6] stands for this setting: read-out: % Emax cf. ACh (M1), CHO cells stably expressing human M1, Emax relative to ACh.
Setting [7] is: CHO cells stably expressing human M2, agonist 5 min, 37° C., read-out: pEC50 M2 (converted).
Where [8] appears, read: CHO cells stably expressing human M3, agonist 5 min, 37° C., read-out: pEC50 M3 (converted).
Where [9] appears, read: CHO cells stably expressing human M4, read-out: pEC50 M4 (converted).
[10] abbreviates: pEC50 M1, CHO cells stably expressing human M1.
[11] abbreviates: CHO cells stably expressing human M1, Emax relative to ACh.
Where [12] appears, read: CHO cells stably expressing human M4.
The mark [13] stands for this setting: CHO cells stably expressing human M1.

Where two headings read alike, the source gives them in different places.

T3 sequence (P20309 whole entry): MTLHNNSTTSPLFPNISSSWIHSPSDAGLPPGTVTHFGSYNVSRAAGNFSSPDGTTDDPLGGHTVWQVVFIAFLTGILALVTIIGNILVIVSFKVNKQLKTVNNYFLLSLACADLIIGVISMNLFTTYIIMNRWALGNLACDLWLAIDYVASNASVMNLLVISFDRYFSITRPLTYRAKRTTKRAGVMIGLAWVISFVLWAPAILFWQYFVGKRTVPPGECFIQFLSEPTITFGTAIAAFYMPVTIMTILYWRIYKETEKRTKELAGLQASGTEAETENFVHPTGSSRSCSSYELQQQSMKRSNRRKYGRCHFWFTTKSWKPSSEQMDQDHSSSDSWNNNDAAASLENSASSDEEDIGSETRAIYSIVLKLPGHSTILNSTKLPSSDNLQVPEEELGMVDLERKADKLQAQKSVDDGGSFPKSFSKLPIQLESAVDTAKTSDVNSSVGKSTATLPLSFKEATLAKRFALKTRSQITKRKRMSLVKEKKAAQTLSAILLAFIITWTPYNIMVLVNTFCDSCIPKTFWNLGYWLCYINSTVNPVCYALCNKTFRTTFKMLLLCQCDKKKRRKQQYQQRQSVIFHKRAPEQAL

As usually defined, the Emax is the greatest response seen or fitted, relative to the assay's reference. With `Cc1noc(N2CCC3(CC(N4CCC(n5cccn5)CC4)C3)C2)n1` (single isomer, unassigned) [2-1 Isomer 2], the EC50 in assay [1] (setting [5]) is greater than 20000 nM; in assay [2] (setting [7]) it was greater than 20000 nM; in assay [3] (setting [8]) it was greater than 20000 nM; in assay [4] (setting [9]) it was 302 nM. Further, the Emax turned out to be 56% in assay [1] (setting [6]); 2% in assay [2] (read-out: % Emax cf. ACh (M2), CHO cells stably expressing human M2, Emax relative to ACh); 3% in assay [3] (read-out: % Emax cf. ACh (M3), CHO cells stably expressing human M3, Emax relative to ACh); 41% in assay [4].
For `Cc1noc(N2CCC3(CC(N4CCC(C#N)(c5ccccc5)CC4)C3)C2)n1` (single isomer, unassigned) [2-2 Isomer 2], the Emax in assay [1] (read-out: % Emax cf. ACh (M1)) was found to be 40%; in assay [2] (read-out: % Emax cf. ACh (M2)), 2%; in assay [3] (read-out: % Emax cf. ACh (M3)), 3%; in assay [4], 51%. Besides, the EC50 in assay [1] (setting [10]) was 741 nM; in assay [2], greater than 20000 nM; in assay [3] it was greater than 20000 nM; in assay [4] (pEC50 M4, CHO cells stably expressing human M4), 117 nM.
`Cc1noc(N2C3CCC2CC(N2CCC(n4cccn4)CC2)C3)n1` (single isomer, unassigned) [6-1 Isomer 1]: the EC50 was greater than 20000 nM in assay [1] (setting [5]), greater than 20000 nM in assay [2] (setting [7]), greater than 20000 nM in assay [3] (setting [8]) and 295 nM in assay [4] (setting [9]). Also, the Emax came out at 23% in assay [1] (setting [6]), 2% in assay [2] (read-out: % Emax cf. ACh (M2)), 2% in assay [3] (read-out: % Emax cf. ACh (M3)) and 51% in assay [4].
As for `CCc1noc(N2C3CCC2CC(N2CCC4(CC2)CNC(=O)C4)C3)n1` (single isomer, unassigned) [6-3 Isomer 2], the Emax in assay [1] (setting [6]) is 33%; in assay [2] (read-out: % Emax cf. ACh (M2)) it was 3%; in assay [3] (read-out: % Emax cf. ACh (M3)), 1%; in assay [4], 7%. The EC50 in assay [1] (setting [10]) was 32.4 nM; in assay [2], greater than 20000 nM; in assay [3] it was greater than 20000 nM; in assay [4] (setting [9]) it was greater than 20000 nM.
As to `Cc1noc(N2C3CCC2CC(N2CCC4(CC2)CNC(=O)O4)C3)n1` (single isomer, unassigned) [6-4 Isomer 2], the “% Emax cf. ACh (M1)” value in assay [1] (setting [11]) is on record as “(87) %”. The EC50 in assay [1] (setting [5]) is 257 nM; in assay [2] (setting [7]) it was greater than 20000 nM; in assay [3] (setting [8]) it was greater than 20000 nM; in assay [4] (setting [9]), 525 nM. In addition, the Emax in assay [2] (read-out: % Emax cf. ACh (M2)) amounted to 5%; in assay [3] (read-out: % Emax cf. ACh (M3)), 32%. For the same molecule, the “% Emax cf. ACh (M4)” value in assay [4] (setting [12]) is listed as “(39) %”.
As for `CNC(=O)N1CCC[C@H]1C1CCN(C2CCCN(c3nc(C)no3)CC2)CC1` (single isomer, unassigned) [10-12 Isomer 1], the EC50 was greater than 20000 nM in assay [1] (setting [5]) and 309 nM in assay [4] (setting [9]). For the same molecule, the Emax in assay [1] (setting [6]) worked out at 22%; in assay [4], 100%.
As to `CNC(=O)N1CCC[C@H]1C1CCN(C2CCCN(c3nc(C)no3)CC2)CC1` (single isomer, unassigned) [10-12 Isomer 2], in assay [1] (setting [11]), the “% Emax cf. ACh (M1)” value is “(24) %”. Further, in assay [1] (setting [13]), the “pEC50 M1” value was less than 4.70. In assay [4] (setting [12]), the “% Emax cf. ACh (M4)” value was “(119) %”. For the same molecule, in assay [4] (setting [9]), the EC50 is 55 nM.
Regarding `Cc1noc(N2CC3CC(N4CCC(n5cccn5)CC4)CC2C3)n1` (single isomer, unassigned) [11-1 Isomer 2], the results for the EC50 in assay [1] (setting [5]) and in assay [4] (setting [9]) were 3160 nM and 1050 nM, respectively. The results for the Emax in assay [1] (setting [6]) and in assay [4] were 48% and 69%, respectively.
On to `Cc1noc(N2CC3CCC2CC3N2CCC3(CC2)CNC(=O)C3)n1` (single isomer, unassigned) [12-1 Isomer 1], for which, in assay [1] (setting [11]), the “% Emax cf. ACh (M1)” value was “(58) %”. Also, the values for the EC50 in assay [1] (setting [5]) and in assay [4] (setting [9]) were 603 nM and greater than 20000 nM, respectively. In addition, the “% Emax cf. ACh (M4)” value in assay [4] (setting [12]) is “(5) %”.
As to `Cc1noc(N2C3CCC2CC(N2CCC(C(=O)NC4(C(F)(F)F)CCC4)CC2)C3)n1` (single isomer, unassigned) [12-7 Isomer 2], the EC50 was 537 nM in assay [1] (setting [5]) and 2000 nM in assay [4] (setting [9]). Further, the Emax in assay [1] (setting [6]) and in assay [4] was 109% in each case.
On to `Cc1noc(N2C3CCC2CC(N2CCC(C(=O)NC4(C)CCCC4)CC2)C3)n1` (single isomer, unassigned) [12-11 Isomer 2], for which the EC50 in assay [1] (setting [5]) is 661 nM; in assay [4] (setting [9]), 2690 nM. Also, the Emax in assay [1] (setting [6]) is 103%; in assay [4] it was 83%.
As for `Cc1noc(N2C3CCC2CC(N2CCC(C(=O)NCC4(C)CCC4)CC2)C3)n1` (single isomer, unassigned) [12-12 Isomer 2], the Emax came to 80% in assay [1] (setting [6]) and 107% in assay [4]. Also, the EC50 in assay [1] (setting [10]) was 3.72 nM; in assay [4] (setting [9]) it was 209 nM.
Turning to `CC1(NC(=O)C2CCN(C3CC4CCC(C3)N4c3nc(C(F)(F)F)no3)CC2)CCC1` (single isomer, unassigned) [12-14 Isomer 1], the “% Emax cf. ACh (M1)” value in assay [1] (setting [11]) was “(47) %”. Further, the EC50 in assay [1] (setting [10]) was 912 nM; in assay [4] (setting [9]) it was greater than 20000 nM. Further, the “% Emax cf. ACh (M4)” value in assay [4] (setting [12]) is reported as “(6) %”.
Regarding `CCN(C)C(=O)[C@H]1[C@@H]2CN(C3CC4CCC(C3)N4c3nc(C)no3)C[C@@H]21` (single isomer, unassigned; isomer 1) [12-24 Isomer 1], the “% Emax cf. ACh (M1)” value in assay [1] (setting [11]) was “(74) %”. In addition, the “pEC50 M1” value in assay [1] (setting [13]) was 6.08. In assay [4] (setting [12]), the “% Emax cf. ACh (M4)” value was “(16) %” and the “pEC50 M4” value is less than 4.70.
With `Cc1noc(N2C3CCC2CC(N2C[C@@H]4[C@H](C2)[C@H]4C(=O)NC2(C)CCC2)C3)n1` (single isomer, unassigned; isomer 2) [12-13 Isomer 2], the “% Emax cf. ACh (M1)” value in assay [1] (setting [11]) is “(102) %”. Further, in assay [1] (setting [13]), the “pEC50 M1” value was 6.48. In addition, in assay [4] (setting [12]), the “% Emax cf. ACh (M4)” value is “(69) %” and the “pEC50 M4” value is listed as 6.09.
For `Cc1noc(N2CC3(CC(N4CCC(n5cccn5)CC4)C3)C2)n1` [Example 1-1, 2-(3-Methyl-1,2,4-oxadiazol-5-yl)-6-[4-(1H-pyrazol-1-yl)piperidin-1-yl]-2-azaspiro[3.3]heptane], the EC50 is 10200 nM in assay [1] (setting [5]) and 513 nM in assay [4] (setting [9]). Moreover, the Emax in assay [1] (setting [6]) came out at 48%; in assay [4], 77%.
For `Cc1noc(N2CCC(N3CCC(n4cccn4)CC3)CC2)n1` [Example 4-1, 1′-(3-Methyl-1,2,4-oxadiazol-5-yl)-4-(1H-pyrazol-1-yl)-1,4′-bipiperidine] the same measures were no less than 20000 nM, 1000 nM, 50% and 85%.
